Measurements from ChEMBL document CHEMBL1201862, “PubChem BioAssay data set” (2004).
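Interpolation was linear, between the two tested concentrations surrounding the appropriate level; five concentrations were tested over 48 hours in 96-well plates. GI50 is the concentration that inhibits growth by half.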 Calls of active or inactive are those of the source. Cut-off read from the data, not from the text of the source: active = GI50 up to about 1.1 µM and inactive = higher.

How the values were obtained:
Experiment in all cases: growth of human tumour cells (NCI), 48 h
NCI-H460 = test system: NCI-H460
EKVX = test system: EKVX
HOP-92 = test system: HOP-92
SW-620 = test system: SW-620
HCT-116 = test system: HCT-116
HCT-15 = test system: HCT-15
MOLT-4 = test system: MOLT-4
SN12C = test system: SN12C
NCI-H522 = test system: NCI-H522
SNB-75 = test system: SNB-75
RXF 393 = test system: RXF 393
SF-295 = test system: SF-295
NCI-H23 = test system: NCI-H23
SF-539 = test system: SF-539
HOP-62 = test system: HOP-62
LOX IMVI = test system: LOX IMVI
SF-268 = test system: SF-268
TK-10 = test system: TK-10
HT-29 = test system: HT-29
Malme-3M = test system: Malme-3M

Structure (SMILES) | GI50 (NCI-H460) | GI50 (EKVX) | GI50 (HOP-92) | GI50 (SW-620) | GI50 (HCT-116) | GI50 (HCT-15) [µM] | GI50 (MOLT-4) | GI50 (SN12C) | GI50 (NCI-H522) | GI50 (SNB-75) | GI50 (RXF 393) | GI50 (SF-295) | GI50 (NCI-H23) | GI50 (SF-539) | GI50 (HOP-62) | GI50 (LOX IMVI) | GI50 (SF-268) | GI50 (TK-10) | GI50 (HT-29) | GI50 (Malme-3M)
CC(NC(=O)N(C)C)NC(=O)N(C)C | > 10 µM (inactive) | > 10 µM (inactive) | > 10 µM (inactive) | > 10 µM (inactive) | > 10 µM (inactive) | > 10 | > 10 µM (inactive) | > 10 µM (inactive) | > 10 µM (inactive) | > 10 µM (inactive) | > 10 µM (inactive) | > 10 µM (inactive) | > 10 µM (inactive) | > 10 µM (inactive) | > 10 µM (inactive) | > 10 µM (inactive) | > 10 µM (inactive) | > 10 µM (inactive) | > 10 µM (inactive) | > 10 µM (inactive)
CCOc1cc(/C=N/c2nc3cc4sc(/N=C/c5ccc(O)c(OCC)c5)nc4cc3s2)ccc1O | 20.4 µM (inactive) | 79.1 µM (inactive) | > 100 µM (inactive) | 38.7 µM (inactive) | > 100 µM (inactive) | > 100 | 30.8 µM (inactive) | 76.7 µM (inactive) | 50.4 µM (inactive) | > 100 µM (inactive) | > 100 µM (inactive) | > 100 µM (inactive) | > 100 µM (inactive) | 20.7 µM (inactive) | > 100 µM (inactive) | 55.8 µM (inactive) | > 100 µM (inactive) | > 100 µM (inactive) | 60.4 µM (inactive) | > 100 µM (inactive)
COc1cc(O)c2c(O)c3c(c4c2c1[C@]1(C4)C(C)=CCCC1(C)C)[C@H](O)[C@@]1(O)CC(O)=C(C(N)=O)C(=O)[C@@]1(O)C3=O | 0.0435 µM (active) | 0.18 µM (active) | 0.362 µM (active) | 0.0619 µM (active) | 0.209 µM (active) | 0.164 | 0.333 µM (active) | 0.0531 µM (active) | 0.071 µM (active) | 0.108 µM (active) | 0.459 µM (active) | 0.322 µM (active) | 0.164 µM (active) | 0.166 µM (active) | 0.16 µM (active) | 0.305 µM (active) | 0.269 µM (active) | 0.189 µM (active) | 0.0615 µM (active) | 0.158 µM (active)
CCOC(=O)c1c2c(n3ccccc13)C(=O)c1ccccc1C2=O | 3.52 µM (inactive) | > 100 µM (inactive) | 44.8 µM (inactive) | > 100 µM (inactive) | > 100 µM (inactive) | 11.1 | > 100 µM (inactive) | > 100 µM (inactive) | > 100 µM (inactive) | 19.5 µM (inactive) | 48.1 µM (inactive) | > 100 µM (inactive) | 42.2 µM (inactive) | 36.7 µM (inactive) | 97.9 µM (inactive) | > 100 µM (inactive) | 31.3 µM (inactive) | 83.4 µM (inactive) | > 100 µM (inactive) | 7.91 µM (inactive)
CCCCCCCCCCNC1CC(OC2CC(O)(C(O)CO)Cc3c(O)c4c(c(O)c32)C(=O)c2c(OC)cccc2C4=O)OC(C)C1O (stereo not given) | 0.601 µM (active) | 1.78 µM (inactive) | 1.47 µM (inactive) | 0.791 µM (active) | 0.692 µM (active) | 1.56 | 0.189 µM (active) | 1.65 µM (inactive) | 1.76 µM (inactive) | 1.62 µM (inactive) | 1.26 µM (inactive) | 1.9 µM (inactive) | 2.63 µM (inactive) | 1.77 µM (inactive) | 1.66 µM (inactive) | 0.641 µM (active) | 1.92 µM (inactive) | 4.44 µM (inactive) | 1.33 µM (inactive) | 1.94 µM (inactive)
CC(O)C1CC1(CO)CNc1cc(Cl)nc(N)n1 (stereo not given) | > 100 µM (inactive) | > 100 µM (inactive) | > 100 µM (inactive) | > 100 µM (inactive) | > 100 µM (inactive) | > 100 | > 100 µM (inactive) | > 100 µM (inactive) | > 100 µM (inactive) | > 100 µM (inactive) | > 100 µM (inactive) | > 100 µM (inactive) | > 100 µM (inactive) | > 100 µM (inactive) | > 100 µM (inactive) | > 100 µM (inactive) | > 100 µM (inactive) | > 100 µM (inactive) | > 100 µM (inactive) | > 100 µM (inactive)
O=C1C=CC(=O)c2c1ccc1c3ccccc3n(-c3cccc([N+](=O)[O-])c3)c21 | > 10 µM (inactive) | > 5.45 µM (inactive) | 2.09 µM (inactive) | 0.804 µM (active) | 1.92 µM (inactive) | 2.59 | 0.355 µM (active) | 3.96 µM (inactive) | 1.91 µM (inactive) | > 10 µM (inactive) | 2.38 µM (inactive) | > 10 µM (inactive) | 2.65 µM (inactive) | > 5.05 µM (inactive) | > 10 µM (inactive) | > 10 µM (inactive) | 5.66 µM (inactive) | 2.24 µM (inactive) | > 10 µM (inactive) | 1.98 µM (inactive)
COc1cc(S(=O)(=O)Nc2ccc(-c3csc(N4C(=O)C(Cl)C4c4ccccc4)n3)cc2)ccc1Cl (stereo not given) | < 0.01 µM (active) | 31.9 µM (inactive) | 18.2 µM (inactive) | 50.4 µM (inactive) | 59.6 µM (inactive) | > 100 | 27 µM (inactive) | 24.9 µM (inactive) | 3.14 µM (inactive) | 22.8 µM (inactive) | 10.7 µM (inactive) | > 100 µM (inactive) | 25.6 µM (inactive) | 32.7 µM (inactive) | 69.2 µM (inactive) | 2.14 µM (inactive) | 33.9 µM (inactive) | > 100 µM (inactive) | > 100 µM (inactive) | 22.3 µM (inactive)
O=C1NC(O)c2cc3ccccc3cc2O1 (stereo not given) | > 100 µM (inactive) | > 100 µM (inactive) | 25.6 µM (inactive) | 61.1 µM (inactive) | 20 µM (inactive) | 19.1 | 30.5 µM (inactive) | 69 µM (inactive) | > 100 µM (inactive) | 79.6 µM (inactive) | > 100 µM (inactive) | > 100 µM (inactive) | 42.7 µM (inactive) | 28 µM (inactive) | > 100 µM (inactive) | 46.6 µM (inactive) | 61.7 µM (inactive) | > 100 µM (inactive) | > 100 µM (inactive) | 59.7 µM (inactive)
O=C1CCC(c2nc3cc(Cl)ccc3o2)C(=O)N1 (stereo not given) | > 100 µM (inactive) | > 100 µM (inactive) | > 100 µM (inactive) | > 100 µM (inactive) | > 100 µM (inactive) | > 100 | > 100 µM (inactive) | > 100 µM (inactive) | > 100 µM (inactive) | 64.7 µM (inactive) | > 100 µM (inactive) | > 100 µM (inactive) | > 100 µM (inactive) | > 100 µM (inactive) | > 100 µM (inactive) | > 100 µM (inactive) | > 100 µM (inactive) | > 100 µM (inactive) | > 100 µM (inactive) | > 100 µM (inactive)
CN(C)CC(O)c1ccc(Cl)c2ccccc12 (stereo not given) | 31.2 µM (inactive) | > 100 µM (inactive) | 14.2 µM (inactive) | > 83.9 µM (inactive) | 50 µM (inactive) | > 90.2 | 23.2 µM (inactive) | 43.3 µM (inactive) | 33.2 µM (inactive) | 17.4 µM (inactive) | 22.1 µM (inactive) | 24.3 µM (inactive) | > 87.1 µM (inactive) | 50.1 µM (inactive) | 50.8 µM (inactive) | 22.3 µM (inactive) | 55.6 µM (inactive) | 34.3 µM (inactive) | 50 µM (inactive) | 32.3 µM (inactive)
Oc1ccc2ccccc2c1C(c1ccc(Cl)cc1)c1c(O)ccc2ccccc12 | 3.16 µM (inactive) | 2.59 µM (inactive) | 1.65 µM (inactive) | 3.18 µM (inactive) | 2.48 µM (inactive) | 3.49 | 2.86 µM (inactive) | 2.76 µM (inactive) | 2.09 µM (inactive) | 3.18 µM (inactive) | 2.96 µM (inactive) | 3.4 µM (inactive) | 3.78 µM (inactive) | 5.05 µM (inactive) | 3.89 µM (inactive) | 2.91 µM (inactive) | 1.66 µM (inactive) | 3.53 µM (inactive) | 2.98 µM (inactive) | 2 µM (inactive)
OCCCNCC(O)c1ccc(OCc2ccccc2)c(OCc2ccccc2)c1 (stereo not given) | 7.52 µM (inactive) | 15 µM (inactive) | 7.59 µM (inactive) | 8.34 µM (inactive) | 8.47 µM (inactive) | 13.1 | 8.3 µM (inactive) | 15.3 µM (inactive) | 14.1 µM (inactive) | 6.12 µM (inactive) | 23.4 µM (inactive) | 10.4 µM (inactive) | 17.5 µM (inactive) | 10.9 µM (inactive) | 14.3 µM (inactive) | 6.35 µM (inactive) | 15.3 µM (inactive) | 7.91 µM (inactive) | 8.24 µM (inactive) | 15.8 µM (inactive)
c1ccc(C2=NCCN2)c(C2=NCCN2)c1 | > 100 µM (inactive) | > 100 µM (inactive) | > 100 µM (inactive) | > 100 µM (inactive) | > 100 µM (inactive) | 44.1 | > 100 µM (inactive) | > 100 µM (inactive) | > 100 µM (inactive) | > 100 µM (inactive) | > 100 µM (inactive) | > 100 µM (inactive) | > 100 µM (inactive) | > 100 µM (inactive) | > 100 µM (inactive) | > 100 µM (inactive) | > 100 µM (inactive) | > 100 µM (inactive) | > 100 µM (inactive) | > 100 µM (inactive)
